Reference: publication PMC6825211 (Nature Communications, 2019)
Where “and” joins values, the source holds several entries; their conditions need not be identical. Equal values may be shown once.

Columns and labels:
MAPKAPK-2 = MAPKAPK-2 (Homo sapiens, UniProt P49137); experiment: Nanosyn kinase profiling, mobility shift assay; conditions: read-out: % inhibition by neratinib
[1] = test system: obese diabetic Lepr db/db mice; experiment: db/db model: insulin secretion during ipGTT; format: in vivo, mouse; design: GSIS: unit not given here
Source text: Data are representative of six mice per group (n = 6 for (a–f)). g–j Mice were killed at day 31. g β-cell mass (given as percentage of the whole pancreatic section from ten sections spanning the width of the pancreas; n = 5 mice/group) and quantitative analyses from triple stainings for (h) TUNEL, (i) Ki67, (j) pHH3, and (k) nuclear PDX1 expression, insulin, and DAPI expressed as percentage of TUNEL-, Ki67-, pHH3-, or nuclear PDX1-positive β-cells ± SEM. An average number of 13667 (h), 5937 (i), 7108 (j), or 4330 (k) β-cells were counted from n = 3–5 (h, i, k) or n = 5–6 (j) mice/group.
For intraperitoneal glucose tolerance tests, mice were fasted 12 h overnight and injected i.p. with glucose (40%; B.Braun, Melsungen, Germany) at a dose of 1 g/kg body weight. Blood samples were obtained at time points 0, 15, 30, 60, 90, and 120 min for glucose measurements by using a Glucometer. For i.p. insulin tolerance tests, mice were injected with 0.75 U/kg body weight recombinant human insulin (Novolin, Novo Nordisk) after 4–5-h fasting, and glucose concentration was determined with the Glucometer. Insulin secretion was measured before (0 min) and after (15 and 30 min) i.p. injection of glucose (2 g/kg) and measured by using ultrasensitive mouse Elisa kit (ALPCO Diagnostics, Salem, NH).

NEK2 = NEK2 (Homo sapiens, UniProt P51955); experiment: Nanosyn kinase profiling, mobility shift assay; conditions: read-out: % inhibition by neratinib
Sequence of NEK2 (P51955 whole entry): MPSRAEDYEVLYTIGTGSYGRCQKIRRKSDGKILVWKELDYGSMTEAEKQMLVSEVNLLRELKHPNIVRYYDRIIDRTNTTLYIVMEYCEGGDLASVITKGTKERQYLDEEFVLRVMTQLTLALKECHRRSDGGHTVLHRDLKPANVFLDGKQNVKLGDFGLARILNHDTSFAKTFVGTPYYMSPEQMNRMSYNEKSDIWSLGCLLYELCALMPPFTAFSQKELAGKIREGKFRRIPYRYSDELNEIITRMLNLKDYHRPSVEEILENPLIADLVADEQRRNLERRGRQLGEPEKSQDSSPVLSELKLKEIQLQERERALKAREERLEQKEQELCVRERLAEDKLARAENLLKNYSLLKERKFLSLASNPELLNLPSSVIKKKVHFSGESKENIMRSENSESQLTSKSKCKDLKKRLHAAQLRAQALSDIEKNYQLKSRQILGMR

PRKD2 = PRKD2 (Homo sapiens, UniProt Q9BZL6); experiment: Nanosyn kinase profiling, mobility shift assay; conditions: read-out: % inhibition by neratinib
Sequence of PRKD2 (Q9BZL6 whole entry): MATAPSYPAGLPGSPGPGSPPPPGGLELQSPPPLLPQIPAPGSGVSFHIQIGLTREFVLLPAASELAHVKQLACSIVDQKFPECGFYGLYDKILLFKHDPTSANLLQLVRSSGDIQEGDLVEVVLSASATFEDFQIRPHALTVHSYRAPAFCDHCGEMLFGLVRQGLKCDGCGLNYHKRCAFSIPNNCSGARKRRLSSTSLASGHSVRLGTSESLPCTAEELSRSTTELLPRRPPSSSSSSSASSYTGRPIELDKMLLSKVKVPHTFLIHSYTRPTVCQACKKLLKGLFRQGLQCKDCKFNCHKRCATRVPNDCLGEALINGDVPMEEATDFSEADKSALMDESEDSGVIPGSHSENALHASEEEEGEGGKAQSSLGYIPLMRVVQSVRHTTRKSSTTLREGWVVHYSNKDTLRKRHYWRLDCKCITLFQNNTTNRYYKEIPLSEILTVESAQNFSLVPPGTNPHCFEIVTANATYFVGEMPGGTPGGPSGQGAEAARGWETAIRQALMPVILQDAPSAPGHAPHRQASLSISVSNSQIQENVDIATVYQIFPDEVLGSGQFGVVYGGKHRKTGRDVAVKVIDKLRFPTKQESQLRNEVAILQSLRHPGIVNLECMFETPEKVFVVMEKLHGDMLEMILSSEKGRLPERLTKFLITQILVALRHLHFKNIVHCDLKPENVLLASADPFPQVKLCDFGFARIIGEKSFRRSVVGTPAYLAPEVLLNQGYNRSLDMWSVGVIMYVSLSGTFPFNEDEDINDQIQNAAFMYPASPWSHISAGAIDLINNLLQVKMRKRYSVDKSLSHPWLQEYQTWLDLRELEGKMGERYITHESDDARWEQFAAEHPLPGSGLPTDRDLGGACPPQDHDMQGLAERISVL

MLD–STZ C57BL/6J mice = experiment: MLD–STZ model: β-cell apoptosis (TUNEL); format: in vivo, mouse
Protocol: C57Bl/6J mice were injected with 40 mg/kg streptozotocin or citrate buffer for 5 consecutive days. […] In d, basal glucose values were normalized to 100%. e Insulin secretion measured from retro-orbital blood draw during an ipGTT measured before (0 min) and 15 min after glucose injection; data are expressed as the ratio of secreted insulin at 15 min/0 min (stimulatory index). f The ratio of secreted insulin and glucose is calculated at fed state. g–i Mice were killed at day 35. g β-cell mass (given as percentage of the whole pancreatic section from ten sections spanning the width of the pancreas) and quantitative analyses from triple staining for h TUNEL or i Ki67, insulin, and DAPI expressed as percentage of TUNEL- or Ki67-positive β-cells ±SEM. An average number of 2331 (h), or 26369 (i) β-cells were counted. n = 9 mice/group for (a); n = 4–12 for (b); n = 5–15 for (c) and (d); n = 12–19 for (e); n = 8–14 for (f); n = 4–9 for (g); n = 4–11 for (h); and n = 6–11 mice/groupfor (i); all from three independent experiments).
Mouse pancreases were dissected and fixed in 4% formaldehyde at 4 °C for 12 h before embedding in paraffin[62]. Two-four-micrometer sections were deparaffinized, rehydrated, and incubated overnight at 4 °C with anti-PDX-1 (Abcam; #47267), anti-Glut2 (Chemicon; #07-1402), anti-Ki67 (Dako; #M7249), anti-phospho-Histone H3 (Ser10; Merck #06-570), and anti-NKX6.1 (DSHB, University of Iowa #F55A12[66]) in combination with TSA (Invitrogen #T30955), or for 2 h at room temperature with anti-insulin (Dako; A0546) antibodies (all at a dilution of 1:100, except anti-PDX-1, which was diluted 1:400) followed by fluorescein isothiocyanate (FITC)- or Cy3-conjugated secondary antibodies (Jackson ImmunoResearch Laboratories, West Grove, PA). Slides were mounted with Vectashield with 4′6-diamidino-2-phenylindole (DAPI) (Vector Labs). β-cell apoptosis was analyzed by the terminal deoxynucleotidyl transferase-mediated dUTP nick-end labeling (TUNEL) technique according to the manufacturer’s instructions (In Situ Cell Death Detection Kit, TMR red; Roche) and double stained for insulin. Fluorescence was analyzed by using a Nikon MEA53200 (Nikon GmbH, Dusseldorf, Germany) microscope, and images were acquired by using NIS-Elements software (Nikon).

[2] = test system: isolated islets from WT mice; experiment: β-cell apoptosis (TUNEL/insulin) under diabetogenic conditions, WT islets

Sequence of MAPKAPK-2 (P49137 whole entry): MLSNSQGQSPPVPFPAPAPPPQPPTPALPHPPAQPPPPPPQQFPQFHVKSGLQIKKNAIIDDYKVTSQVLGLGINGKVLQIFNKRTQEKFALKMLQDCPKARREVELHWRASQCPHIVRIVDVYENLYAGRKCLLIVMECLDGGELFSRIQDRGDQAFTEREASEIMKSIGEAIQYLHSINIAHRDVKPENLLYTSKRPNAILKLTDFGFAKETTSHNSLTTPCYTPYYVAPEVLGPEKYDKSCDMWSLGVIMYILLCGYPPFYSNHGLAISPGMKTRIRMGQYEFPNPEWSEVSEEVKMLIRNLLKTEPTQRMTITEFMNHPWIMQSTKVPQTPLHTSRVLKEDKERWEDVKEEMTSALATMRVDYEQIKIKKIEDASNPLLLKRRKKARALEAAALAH

CCOc1cc2ncc(C#N)c(Nc3ccc(OCc4ccccn4)c(Cl)c3)c2cc1NC(=O)/C=C/CN(C)C [neratinib]
inhibition at 10 µM (MAPKAPK-2): 7%
insulin secretion ([1]; db/db): enhanced insulin secretion
GSIS ([1]; time after glucose injection 0, MEAN): 7.868
GSIS ([1]; time after glucose injection 0, individual mice): 7.6163 and 7.7481 and 3.303 and 9.154 and 8.9273 and 10.458
GSIS ([1]; time after glucose injection 15, MEAN): 11.2434
GSIS ([1]; time after glucose injection 15, individual mice): 17.086 and 7.6058 and 10.292 and 7.1842 and 8.1355 and 17.157
inhibition at 10 µM (NEK2): 68%
inhibition at 10 µM (PRKD2): 71%
TUNEL%/ mouse (MLD–STZ C57BL/6J mice; NeraCtr group (no STZ), MEAN): 0.08333%
TUNEL%/ mouse (MLD–STZ C57BL/6J mice; NeraCtr group (no STZ), individual mice): 0.3333% and 0%
TUNEL%/ mouse (MLD–STZ C57BL/6J mice; NeraSTZ group, MEAN): 0.24%
TUNEL%/ mouse (MLD–STZ C57BL/6J mice; NeraSTZ group, individual mice): 0% and 0.2857% and 1.2987% and 0.3546% and 0.7008%
β-cell apoptosis (MLD–STZ C57BL/6J mice; STZ mice, day 35): reduced β-cell apoptosis
cytokine- and glucolipotoxicity-induced apoptosis in WT islets ([2]; 10 μM, 72 h): reduced cytokine- and glucolipotoxicity-induced apoptosis
mean TUNEL/isolation/% ([2]; WT HG/Pal Nera 10 μM 72 h, mean): 370.621%
mean TUNEL/isolation/% ([2]; WT HG/Pal Nera 10 μM 72 h, single isolations, WT untreated = 100): 424.349% and 323.811% and 387.381% and 346.941%
mean TUNEL/isolation/% ([2]; WT ILIF Nera 10 μM 72 h, mean): 814.399%
